Assay results from ChEMBL document CHEMBL5108056, “Discovery of Isoform-Selective Akt3 Degraders Overcoming Osimertinib-Induced Resistance in Non-Small Cell Lung Cancer Cells” (J Med Chem, 2022).
Activity calls are given as the source filed them. No cut-off for these calls is given here.

Columns and labels:
[1] = target: T1, RAC-gamma serine/threonine-protein kinase (Homo sapiens, UniProt Q9Y243); assay: Induction of AKT3 degradation in human NCI-H1975 cells assessed as reduction in AKT3 protein level incubated for 24 hrs under serum free medium by Western blot analysis; assay type: cell-based
[2] = target: RAC-beta serine/threonine-protein kinase (Homo sapiens, UniProt P31751); assay: Induction of AKT2 degradation in human NCI-H1975 cells assessed as reduction in AKT2 protein level incubated for 24 hrs under serum free medium by Western blot analysis; assay type: cell-based
[3] = target: RAC-alpha serine/threonine-protein kinase (Homo sapiens, UniProt P31749); assay: Induction of AKT1 degradation in human NCI-H1975 cells assessed as reduction in AKT1 protein level incubated for 24 hrs under serum free medium by Western blot analysis; assay type: cell-based
[4] = target: T1, RAC-gamma serine/threonine-protein kinase; assay: Induction of AKT3 degradation in human NCI-H1975 cells assessed as reduction in AKT3 protein level at 1000 nM incubated for 24 hrs under serum free medium by Western blot analysis relative to control; assay type: cell-based
NCI-H1975 [5] = assay: Antiproliferative activity against human osimertinib resistant NCI-H1975 cells assessed as reduction in cell viability measured after 24 hrs by CCK-8 assay; assay type: functional, cell-based; conditions: NCI-H1975, 24 h
[6] = target: Epidermal growth factor receptor (Homo sapiens, UniProt P00533); assay: Inhibition of EGFR in human NCI-H1975 cells; assay type: cell-based
[7] = target: T1, RAC-gamma serine/threonine-protein kinase; assay: Binding affinity to full length N-terminal His6-sumo tagged AKT3 (unknown origin) expressed Escherichia coli BL21 (DE3) cells by pull-down/ Western blot analysis
[8] = target: T1, RAC-gamma serine/threonine-protein kinase; assay: Binding affinity to full length N-terminal His6-sumo tagged AKT3 (unknown origin) expressed Escherichia coli BL21 (DE3) cells incubated for 2 hrs by pull-down/ LC-MS analysis
NCI-H1975 [9] = assay: Antiproliferative activity against human NCI-H1975 cells harbouring Akt3 T305A/S472A mutant assessed as reduction in cell viability incubated for 72 hrs by CCK-8 assay; assay type: functional, cell-based; conditions: NCI-H1975, 72 h
NCI-H1975 [10] = assay: Antiproliferative activity against human NCI-H1975 cells assessed as reduction in cell viability incubated for 72 hrs by CCK-8 assay; conditions: NCI-H1975, 72 h
NCI-H1975 [11] = assay: Antiproliferative activity against human NCI-H1975 cells harbouring wild type Akt3 assessed as reduction in cell viability incubated for 72 hrs by CCK-8 assay; conditions: NCI-H1975, 72 h

T1 sequence (Q9Y243 whole entry): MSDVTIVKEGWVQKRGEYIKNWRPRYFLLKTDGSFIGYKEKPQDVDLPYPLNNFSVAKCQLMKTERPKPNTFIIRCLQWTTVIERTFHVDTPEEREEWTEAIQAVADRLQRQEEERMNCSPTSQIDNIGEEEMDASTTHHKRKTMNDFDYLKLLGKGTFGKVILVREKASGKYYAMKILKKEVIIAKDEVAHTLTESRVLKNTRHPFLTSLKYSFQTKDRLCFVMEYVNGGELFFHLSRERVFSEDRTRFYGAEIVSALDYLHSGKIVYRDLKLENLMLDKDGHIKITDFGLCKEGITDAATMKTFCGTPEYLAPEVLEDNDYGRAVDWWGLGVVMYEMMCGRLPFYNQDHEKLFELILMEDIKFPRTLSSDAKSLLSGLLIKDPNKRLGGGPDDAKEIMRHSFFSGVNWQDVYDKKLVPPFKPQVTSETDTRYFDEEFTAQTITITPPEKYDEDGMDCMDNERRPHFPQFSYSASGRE
RAC-alpha serine/threonine-protein kinase, sequence (P31749 whole entry): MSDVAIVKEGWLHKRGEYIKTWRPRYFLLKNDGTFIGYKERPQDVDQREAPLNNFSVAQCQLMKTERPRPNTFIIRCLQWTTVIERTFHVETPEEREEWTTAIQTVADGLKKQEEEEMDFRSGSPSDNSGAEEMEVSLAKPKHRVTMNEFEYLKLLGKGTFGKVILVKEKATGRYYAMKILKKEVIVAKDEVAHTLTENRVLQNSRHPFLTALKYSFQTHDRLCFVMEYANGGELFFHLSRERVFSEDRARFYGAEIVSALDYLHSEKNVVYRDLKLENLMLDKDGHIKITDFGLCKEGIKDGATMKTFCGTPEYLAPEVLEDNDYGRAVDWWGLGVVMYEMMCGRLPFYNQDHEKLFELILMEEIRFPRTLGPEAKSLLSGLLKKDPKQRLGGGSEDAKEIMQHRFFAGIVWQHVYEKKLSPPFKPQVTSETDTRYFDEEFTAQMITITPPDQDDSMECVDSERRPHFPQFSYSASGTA
RAC-beta serine/threonine-protein kinase, sequence (P31751 whole entry): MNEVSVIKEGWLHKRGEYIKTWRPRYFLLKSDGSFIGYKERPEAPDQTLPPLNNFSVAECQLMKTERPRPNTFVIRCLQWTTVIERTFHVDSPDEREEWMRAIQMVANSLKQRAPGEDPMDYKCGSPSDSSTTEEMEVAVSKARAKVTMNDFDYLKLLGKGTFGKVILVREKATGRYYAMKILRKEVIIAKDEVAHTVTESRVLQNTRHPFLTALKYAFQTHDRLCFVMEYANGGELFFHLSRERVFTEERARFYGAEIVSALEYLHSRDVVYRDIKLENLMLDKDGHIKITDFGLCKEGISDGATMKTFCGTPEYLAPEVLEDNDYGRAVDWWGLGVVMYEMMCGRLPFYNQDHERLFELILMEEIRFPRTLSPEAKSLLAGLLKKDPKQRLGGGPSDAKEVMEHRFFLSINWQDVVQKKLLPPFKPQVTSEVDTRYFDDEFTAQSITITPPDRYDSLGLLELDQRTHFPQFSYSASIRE
Epidermal growth factor receptor, sequence (P00533 whole entry): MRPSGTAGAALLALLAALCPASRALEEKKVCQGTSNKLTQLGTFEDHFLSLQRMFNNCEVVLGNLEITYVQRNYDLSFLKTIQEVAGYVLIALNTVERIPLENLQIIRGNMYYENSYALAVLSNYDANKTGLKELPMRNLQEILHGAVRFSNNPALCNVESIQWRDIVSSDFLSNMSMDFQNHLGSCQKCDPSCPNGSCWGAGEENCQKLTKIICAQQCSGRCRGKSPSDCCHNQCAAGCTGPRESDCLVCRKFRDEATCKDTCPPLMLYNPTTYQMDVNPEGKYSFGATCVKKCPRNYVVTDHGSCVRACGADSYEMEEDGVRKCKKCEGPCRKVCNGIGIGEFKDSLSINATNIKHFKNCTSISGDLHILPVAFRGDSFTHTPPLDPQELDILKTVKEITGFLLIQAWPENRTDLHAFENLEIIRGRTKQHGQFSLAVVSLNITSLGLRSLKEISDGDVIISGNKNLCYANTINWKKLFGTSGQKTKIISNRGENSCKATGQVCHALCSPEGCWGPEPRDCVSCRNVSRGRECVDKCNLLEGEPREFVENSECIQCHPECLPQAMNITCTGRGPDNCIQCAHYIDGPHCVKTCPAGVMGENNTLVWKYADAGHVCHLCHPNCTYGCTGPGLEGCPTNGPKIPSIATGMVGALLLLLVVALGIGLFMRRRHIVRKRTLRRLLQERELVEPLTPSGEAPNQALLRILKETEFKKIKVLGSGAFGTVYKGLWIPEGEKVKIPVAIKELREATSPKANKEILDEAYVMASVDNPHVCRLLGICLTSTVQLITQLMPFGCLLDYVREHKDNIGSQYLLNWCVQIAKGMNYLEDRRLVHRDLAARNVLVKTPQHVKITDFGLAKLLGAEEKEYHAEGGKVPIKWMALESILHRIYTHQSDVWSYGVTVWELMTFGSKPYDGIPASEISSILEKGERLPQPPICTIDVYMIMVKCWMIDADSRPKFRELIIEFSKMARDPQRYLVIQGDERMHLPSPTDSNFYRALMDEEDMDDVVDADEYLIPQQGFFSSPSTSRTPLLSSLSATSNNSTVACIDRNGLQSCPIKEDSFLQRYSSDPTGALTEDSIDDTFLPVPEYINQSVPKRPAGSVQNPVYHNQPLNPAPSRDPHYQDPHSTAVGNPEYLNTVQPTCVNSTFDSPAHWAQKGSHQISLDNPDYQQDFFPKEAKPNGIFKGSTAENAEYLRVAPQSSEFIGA

Row | Structure (SMILES) | EC50 [1] [nM] | EC50 [2] [nM] | EC50 [3] [nM] | Emax [4] [%] | also measured
1 | COc1cc(N2CCN(CCCCCCCCCCCCNC(=O)CC34CC5CC(CC(C5)C3)C4)CC2)ccc1Nc1ncc2c(C)cc(=O)n(-c3cccc(NC(C)=O)c3)c2n1 | 67 | > 1000 | > 1000 | 68 | 
2 | C=CC(=O)Nc1cccc(-n2c(=O)cc(C)c3cnc(Nc4ccc(N5CCN(CCCCCCCCCCNC(=O)CC67CC8CC(CC(C8)C6)C7)CC5)cc4OC)nc32)c1 | 402 | > 1000 | > 1000 | 51 | 
3 | C[C@@H]1CC(O)c2ncnc(N3CCN(C(=O)[C@H](CNCCCCCCCCCCc4cccc5c4C(=O)N(C4CCC(=O)NC4=O)C5=O)c4ccc(Cl)cc4)CC3)c21 (mixture of isomers) |  |  |  |  | IC50 (NCI-H1975 [5]): 2420 nM
4 | C#CCN(CCCCCCCCCCCCN1CCN(c2ccc(Nc3ncc4c(C)cc(=O)n(-c5cccc(NC(=O)C6CC6)c5)c4n3)c(OC)c2)CC1)C(=O)CC12CC3CC(CC(C3)C1)C2 |  |  |  |  | Activity [7]: Active; Activity [8]: Active
5 | COc1cc(N2CCN(CCCCCCCCCCCCNC(=O)CC34CC5CC(CC(C5)C3)C4)CC2)ccc1Nc1ncc2c(C)cc(=O)n(-c3ccc(NC(=O)C4CC4)cc3)c2n1 | > 1000 | > 1000 | > 1000 |  | IC50 (NCI-H1975 [5]): > 10000 nM
7 | COc1cc(N2CCN(CCCCCCCCCCCCNC(=O)CC34CC5CC(CC(C5)C3)C4)CC2)ccc1Nc1ncc2c(C)cc(=O)n(-c3cccc(N)c3)c2n1 | 102 | > 1000 | > 1000 | 77 | 

Second part, led by results:

Row | EC50 [1] [nM] | EC50 [2] [nM] | EC50 [3] [nM] | Emax [4] [%] | Structure (SMILES) | also measured
8 | > 1000 | > 1000 | > 1000 |  | C=CC(=O)Nc1cccc(-n2c(=O)cc(C)c3cnc(Nc4ccc(N5CCN(C)CC5)cc4OC)nc32)c1 | 
9 | 33 | > 1000 | > 1000 | 71 | COc1cc(N2CCN(CCCCCCCCCCCCNC(=O)CC34CC5CC(CC(C5)C3)C4)CC2)ccc1Nc1ncc2c(C)cc(=O)n(-c3cccc(NC(=O)C(C)C)c3)c2n1 | EC50 [6]: 143 nM
10 | > 1000 | > 1000 | > 1000 |  | C=CC(=O)Nc1cccc(-n2c(=O)cc(C)c3cnc(Nc4ccc(N5CCN(C(=O)CCCCCCCCCCCNC(=O)CC67CC8CC(CC(C8)C6)C7)CC5)cc4OC)nc32)c1 | 
